From patent US20050249857A1, “Lignan complexes” (priority 2002, published 2005) come the findings set out here.

Converted amounts (≈) assume the structure as drawn. Where two headings read alike, the source gives them in different places.

The nature of one data set: physchem. The settings on record: 25 °C, pH 5, aqueous buffer, thermodynamic from solid.
A short description of data set [1]: Phase-solubility study of HMR with HP-β-CD. It counts as physicochemical. The conditions noted are these: for solubility at 72 h: acetate buffer, 25 °C, thermodynamic from solid, 0.16 M acetate buffer pH 5.0, μ = 0.5, 25° C., equilibration 72 hours. As for the experimental part:
The phase solubility studies with HMR was also performed with HP-β-CD (0-10%). In the case of HP-β-CD the equilibration time was 72 hours.

The nature of data set [2]: Chemical stability of HMR in acetate buffer with and without 2% γ-CD. It counts as physicochemical. The conditions noted are these: for First-order rate constant kobs for chemical degradation / shelf-life t90% for chemical degradation: 0.16 M acetate buffer pH 5.0, 30° C.; for half-life: acetate buffer, pH 5, 0.16 M acetate buffer pH 5.0, 30° C., read-out: half-life t1/2 for chemical degradation (converted). As for the experimental part:
All the solutions were prepared by dissolving 1.5-2.0 mg of HMR into 20 ml of the solutions mentioned above, and the concentration of the remaining HMR was determined at appropriate intervals by HPLC. The pseudo-first order rate constant for overall degradation of HMR was determined from the slopes of the linear semilogarithmic plots of remaining HMR versus time. The results of the stability studies were calculated as an average of three determinations.

Data set [3] can be described thus: Phase-solubility study with γ-CD (Higuchi and Connors). The settings on record: 0.16 M acetate buffer pH 5.0, μ = 0.5, 25° C., equilibration 24 hours.
Protocol: (§1) The samples from the solubility and stability studies were analysed by using the HPLC system which consist of the UV-detector (L-7400), interface module (D-7000), pump (L-7100) and autosampler (L-7250, Merck Hitachi, Japan). Purospher® reversed phase column (RP-18e, 5 μm, 125×4 mm) was used in all chromatographic separations.
(§2) An excess amount of lignan or lignan ester was added to acetate buffer (0.16 M; pH 5.0; ionic strength 0.5) containing various concentrations of γ-CD (0-10%). The suspensions were shaken in the dark (25° C.) for 24 hour and the pH of the suspensions were monitored during the equilibration. The pH of suspensions was adjusted to 5.0 with HCl or NaOH if necessary. After equilibration, the suspensions were filtered through 0.45 μm membrane filters and analysed by HPLC.

Protocol for physchem: as §1, §2

Turning to `COc1cc(C[C@H]2C(=O)OC[C@@H]2[C@H](O)c2ccc(O)c(OC)c2)ccc1O` [HMR, hydroxymatairesinol], the solubility at 24 h in “physchem” turned out to be 6700 µg/mL (≈ 17.9 mM). For the same compound, the “effect of HP-β-CD on aqueous solubility” value in data set [1] (HP-β-CD 0-10%, pH 5.0) is “increases aqueous solubility”. The solubility at 72 h in data set [1] (pH 5, aqueous buffer, HP-β-CD 0 g/100 ml) worked out at 14600 µg/mL (≈ 38.9 mM); in data set [1] (pH 5, aqueous with cosolvent or surfactant or cyclodextrin, HP-β-CD 1 g/100 ml), 14900 µg/mL (≈ 39.8 mM); in data set [1] (pH 5, aqueous with cosolvent or surfactant or cyclodextrin, HP-β-CD 2 g/100 ml), 14900 µg/mL (≈ 39.9 mM); in data set [1] (pH 5, aqueous with cosolvent or surfactant or cyclodextrin, HP-β-CD 5 g/100 ml) it was 20200 µg/mL (≈ 53.8 mM); in data set [1] (pH 5, aqueous with cosolvent or surfactant or cyclodextrin, HP-β-CD 10 g/100 ml), 26800 µg/mL (≈ 71.7 mM). Further, the “First-order rate constant kobs for chemical degradation” value in data set [2] (with 2% γ-CD) is 5.71e-05 h⁻¹; in data set [2] (without γ-CD), 0.000691 h⁻¹. The figures for the “shelf-life t90% for chemical degradation” value in data set [2] (with 2% γ-CD) and in data set [2] (without γ-CD) were 1845 h and 152 h, respectively. Moreover, the figures for the half-life in data set [2] (with 2% γ-CD) and in data set [2] (without γ-CD) were 506 days and 41.8 days, respectively. The “increase of chemical stability by 2% γ-CD” value in data set [2] (pH 5.0, with versus without 2% γ-CD) was “about 12 fold”. For the same compound, the “kinetics of overall degradation” value in data set [2] (presence and absence of 2% γ-CD at pH 5.0) was “followed first-order kinetics”.
The compound `COc1cc(C[C@H]2COC(=O)[C@@H]2Cc2ccc(O)c(OC)c2)ccc1O` [MR, matairesinol] displayed a solubility at 24 h in the data set “physchem” of 490 µg/mL (≈ 1.37 mM).
For the compound `CCCC(=O)Oc1ccc(C[C@H]2COC(=O)[C@@H]2Cc2ccc(OC(=O)CCC)c(OC)c2)cc1OC` [MRdiBu, matairesinol dibutyrate], the aqueous solubility entry is “—* (concentration is under the detection limit of the HPLC method employed.)” in data set [3] (γ-CD 0 g/100 ml); “—* (concentration is under the detection limit of the HPLC method employed.)” in data set [3] (γ-CD 1 g/100 ml); 0.87 µg/mL (≈ 0.00174 mM) in data set [3] (γ-CD 2 g/100 ml); 1.21 µg/mL (≈ 0.00243 mM) in data set [3] (γ-CD 5 g/100 ml); 0.84 µg/mL (≈ 0.00168 mM) in data set [3] (γ-CD 10 g/100 ml).
Regarding `COc1cc(C[C@@H](CO)[C@H](CO)Cc2ccc(O)c(OC)c2)ccc1O` [SECO, secoisolariciresinol], the aqueous solubility came out at 700 µg/mL (≈ 1.93 mM) in data set [3] (γ-CD 0 g/100 ml); 1740 µg/mL (≈ 4.8 mM) in data set [3] (γ-CD 1 g/100 ml); 2020 µg/mL (≈ 5.57 mM) in data set [3] (γ-CD 2 g/100 ml); 1780 µg/mL (≈ 4.91 mM) in data set [3] (γ-CD 5 g/100 ml); 390 µg/mL (≈ 1.08 mM) in data set [3] (γ-CD 10 g/100 ml).
The like results for hydroxymatairesinol diacetate [HMRdiAc] were, in that order, 750 µg/mL, 1460 µg/mL, 2070 µg/mL, 940 µg/mL and 160 µg/mL.
